Data published in patent publication US8314269B2, “N-(1-methyl-2phenylethyl)benzamide derivatives” (Bayer Cropscience AG, priority 2005, dated 2012).

System: Pyrenophora teres
Test: In vivo test on Pyrenophora teres (barley net blotch)
Conditions: 500 ppm, preventive spray on barley plants (Express), grading 12 days after contamination vs control plants
Method: The active ingredients tested are prepared by homogenisation in a mixture of acetone/tween/DMSO, then diluted with water to obtain the desired active material concentration.
Barley plants (Express variety), sown on a 50/50 peat soil-pozzolana substrate in starter cups and grown at 12° C., are treated at the 1-leaf stage (10 cm tall) by spraying with the active ingredient prepared as described above. Plants, used as controls, are treated with the mixture of acetone/tween/DMSO/water not containing the active material.
After 24 hours, the plants are contaminated by spraying them with an aqueous suspension of Pyrenophora teres spores (12,000 spores per ml). The spores are collected from a 12-day-old culture. The contaminated barley plants are incubated for 24 hours at about 20° C. and at 100% relative humidity, and then for 12 days at 80% relative humidity.
Grading is carried out 12 days after the contamination, in comparison with the control plants.

For `CC(Cc1ccc(Cl)cc1)NC(=O)c1ccccc1C(F)(F)F` (stereo not shown) [Compound 1], the protection was “at least 70%”.
